What all share (format): biochemical
One test has as its target PIK3α (PIK3CA/PIK3R1) (Homo sapiens, UniProt P42336). The test is described as follows: IC50 by mobility shift assay. Conditions: Table 2, mobility shift assay; read-out: IC50 (μM), Kinase PIK3CA/PIK3RI. On the procedure:
The compounds obtained in Production Examples described above were each measured for its IC50 value for PIK3α (PIK3CA/PIK3R1) by mobility shift assay. The mobility shift assay is a method involving separating and quantifying a substrate and a phosphorylated substrate on the basis of mobility in a capillary. Each compound was mixed at various concentrations with an assay buffer (20 mM HEPES, 2 mM DTT, 25 μM sodium cholate, 75 mM NaCl, 20 μM cantharidine) together with 21 nM PI3K, 1,000 nM phosphatidyl inositol, 50 μM ATP, and 5 mM MgCl, and the mixture was subjected to a reaction at room temperature for 5 hours, followed by the mobility shift assay. The test was repeated twice. The enzymatic reaction was assessed on the basis of a product ratio (P/(P+S)) calculated from the height of a substrate peptide peak (S) and the height of a phosphorylated peptide peak (P). An inhibition rate was calculated from a signal obtained when each compound was added, with the average signal of a control containing all reaction components being defined as 0% inhibition and the average signal of a background (no enzyme added) being defined as 100% inhibition.
(§1) The compounds produced in Production Examples described above were each assessed for its inhibitory activity against CDK7, PIM2, and PI3K by mobility shift assay. In addition, a combination showing the highest inhibitory activity against each kinase is indicated by italics.

In the next test the target is PIM2 (Homo sapiens, UniProt Q9P1W9). The test is described as follows: IC50 by mobility shift assay. Conditions: for IC50: Table 2, mobility shift assay, read-out: IC50 (μM), Kinase PIM2; for inhibitory activity against PIM2: in words, Table 2.
Description: as §1

Another test has as its target CDK7/CycHMAT1 (Homo sapiens, UniProt P50613). Put plainly: IC50 by mobility shift assay. The settings on record: Table 2, mobility shift assay; read-out: IC50 (μM), Kinase CDK7/CycH/MAT1.
Description: as §1

For a further test, the target named is PIK3CA/PIK3R1 (Homo sapiens, UniProt P42336). Put plainly: ADP-Glo Kinase Assay. Conditions: FIG. 4. On the procedure: CD-3 produced in the foregoing was used as a test substance, and was measured for its IC50 value for PIK3CA/PIK3R1 by ADP-Glo™ Kinase Assay. A specific procedure is as described below.
The test substance was dissolved in dimethyl sulfoxide (DMSO), and further diluted with DMSO to prepare a solution having a 100-fold concentration with respect to a Lest concentration. The solution was further diluted 25-fold with an assay buffer to prepare a test substance solution. A positive control substance was similarly treated to prepare a positive control substance solution.
1) 5 μL of a test substance solution having a 4-fold concentration, 5 μL of a substrate solution having a 4-fold concentration, 5 μL of an ATP solution having a 4-fold concentration, and 5 μL of a kinase/metal solution having a 4-fold concentration, which had been prepared with an assay buffer (50 mM MOPS, 1 mM DTT, pH 7.2), were mixed in wells of a 384 well black plate made of polystyrene, and the mixture was subjected to a reaction at room temperature for 1 hour. […]
4) The kinase reaction was assessed in terms of relative light unit (RLU). […]
An IC50 value was determined by approximating a plot of test substance concentration and inhibition rate to a 4-parameter logistic curve by a nonlinear least-squares method.
For orientation: In ADP-Glo the light output rises with the ADP produced.

The next test addresses CDK4/CycD3 (Homo sapiens, UniProt P11802). The test is described as follows: IC50 by mobility shift assay. The settings on record: Table 3, CDK4, mobility shift assay; read-out: IC50 (μM), Kinase CDK4/CycD3. An excerpt:
Next, the compounds produced in Production Examples described above were each assessed for its inhibitory activity against CDK4 by mobility shift assay. In addition, a combination showing the highest inhibitory activity is indicated by italics.

A further test addresses CDK6 (Homo sapiens, UniProt Q00534). The test is described as follows: IC50 by mobility shift assay. Conditions: Table 4, inhibitory activity against CDK6, mobility shift assay; read-out: IC50 (μM), Kinase. An excerpt:
Next, the compounds produced in Production Examples described above were each assessed for its inhibitory activity against CDK6 by mobility shift assay. In addition, a combination showing the highest inhibitory activity is indicated by italics.

A word on the pIC50: it is −log10 of the IC50, conventionally taken in molar units. The low end stands for a large IC50, the high end for a small IC50.

pIC50: −log10 of the molar value.

Chain of PIK3α (PIK3CA/PIK3R1) (P42336 whole entry): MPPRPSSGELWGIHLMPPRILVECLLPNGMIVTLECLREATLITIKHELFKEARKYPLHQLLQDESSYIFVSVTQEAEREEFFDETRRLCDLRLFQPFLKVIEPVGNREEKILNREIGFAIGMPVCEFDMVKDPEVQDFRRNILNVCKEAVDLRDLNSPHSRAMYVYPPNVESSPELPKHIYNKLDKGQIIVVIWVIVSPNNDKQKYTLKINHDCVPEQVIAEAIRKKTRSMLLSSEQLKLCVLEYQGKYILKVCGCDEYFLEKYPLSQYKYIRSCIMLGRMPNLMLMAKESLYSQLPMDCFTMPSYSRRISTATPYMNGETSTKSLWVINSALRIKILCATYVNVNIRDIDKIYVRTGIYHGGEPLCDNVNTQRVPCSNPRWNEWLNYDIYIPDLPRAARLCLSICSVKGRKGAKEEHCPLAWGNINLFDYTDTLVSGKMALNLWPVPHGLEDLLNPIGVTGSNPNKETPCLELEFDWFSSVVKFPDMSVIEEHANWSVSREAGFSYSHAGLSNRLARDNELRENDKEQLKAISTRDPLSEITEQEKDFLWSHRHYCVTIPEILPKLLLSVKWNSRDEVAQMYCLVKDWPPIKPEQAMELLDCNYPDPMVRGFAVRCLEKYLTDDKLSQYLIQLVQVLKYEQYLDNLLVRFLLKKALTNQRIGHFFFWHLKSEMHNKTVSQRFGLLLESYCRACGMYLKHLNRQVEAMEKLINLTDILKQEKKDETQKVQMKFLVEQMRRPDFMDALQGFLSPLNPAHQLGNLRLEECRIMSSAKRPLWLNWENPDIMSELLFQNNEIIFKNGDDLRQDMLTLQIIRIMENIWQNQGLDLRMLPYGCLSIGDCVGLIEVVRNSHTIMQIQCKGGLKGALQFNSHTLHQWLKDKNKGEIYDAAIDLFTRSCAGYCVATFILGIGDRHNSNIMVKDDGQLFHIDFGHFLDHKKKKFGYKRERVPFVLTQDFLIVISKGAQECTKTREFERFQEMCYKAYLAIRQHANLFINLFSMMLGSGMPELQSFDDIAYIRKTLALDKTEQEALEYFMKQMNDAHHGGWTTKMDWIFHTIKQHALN
Chain of PIK3α (PIK3CA/PIK3R1) (P27986 whole entry partner): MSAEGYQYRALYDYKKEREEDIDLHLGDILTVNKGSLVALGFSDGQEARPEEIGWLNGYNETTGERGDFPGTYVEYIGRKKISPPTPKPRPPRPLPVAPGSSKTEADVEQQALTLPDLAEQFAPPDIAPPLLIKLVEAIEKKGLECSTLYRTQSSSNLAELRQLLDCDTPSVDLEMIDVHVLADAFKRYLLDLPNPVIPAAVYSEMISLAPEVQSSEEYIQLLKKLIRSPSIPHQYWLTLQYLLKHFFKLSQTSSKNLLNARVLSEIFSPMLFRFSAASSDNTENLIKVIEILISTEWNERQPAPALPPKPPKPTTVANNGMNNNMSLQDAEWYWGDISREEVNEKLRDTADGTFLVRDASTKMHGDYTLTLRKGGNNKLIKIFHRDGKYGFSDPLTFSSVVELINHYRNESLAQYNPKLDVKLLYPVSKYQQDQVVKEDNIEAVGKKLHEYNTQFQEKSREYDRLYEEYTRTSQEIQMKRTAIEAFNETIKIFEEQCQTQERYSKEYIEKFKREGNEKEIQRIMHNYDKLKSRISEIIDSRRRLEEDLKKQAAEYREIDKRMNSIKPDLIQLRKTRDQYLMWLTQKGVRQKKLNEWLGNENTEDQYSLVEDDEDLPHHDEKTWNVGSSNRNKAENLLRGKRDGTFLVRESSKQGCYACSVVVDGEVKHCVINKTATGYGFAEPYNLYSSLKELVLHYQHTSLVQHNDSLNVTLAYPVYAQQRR
Chain of CDK4/CycD3 (P11802 whole entry): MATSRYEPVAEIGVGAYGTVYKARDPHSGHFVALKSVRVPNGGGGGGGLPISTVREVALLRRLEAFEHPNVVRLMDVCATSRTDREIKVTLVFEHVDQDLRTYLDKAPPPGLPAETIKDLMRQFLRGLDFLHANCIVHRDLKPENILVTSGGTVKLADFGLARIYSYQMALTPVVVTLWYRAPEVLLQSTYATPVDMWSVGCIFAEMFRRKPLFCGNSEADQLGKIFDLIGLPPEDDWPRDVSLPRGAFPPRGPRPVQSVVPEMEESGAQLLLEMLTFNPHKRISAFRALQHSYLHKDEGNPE
Chain of CDK4/CycD3 (P30281 whole entry partner): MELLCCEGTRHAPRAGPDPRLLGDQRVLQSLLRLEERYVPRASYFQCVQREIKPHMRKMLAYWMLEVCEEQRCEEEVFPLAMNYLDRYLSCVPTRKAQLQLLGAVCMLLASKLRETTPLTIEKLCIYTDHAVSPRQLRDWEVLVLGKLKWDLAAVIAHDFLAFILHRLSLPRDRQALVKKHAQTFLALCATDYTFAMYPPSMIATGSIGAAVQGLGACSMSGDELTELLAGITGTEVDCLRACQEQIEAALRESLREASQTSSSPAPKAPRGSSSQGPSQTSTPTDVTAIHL
Chain of PIM2 (Q9P1W9 whole entry): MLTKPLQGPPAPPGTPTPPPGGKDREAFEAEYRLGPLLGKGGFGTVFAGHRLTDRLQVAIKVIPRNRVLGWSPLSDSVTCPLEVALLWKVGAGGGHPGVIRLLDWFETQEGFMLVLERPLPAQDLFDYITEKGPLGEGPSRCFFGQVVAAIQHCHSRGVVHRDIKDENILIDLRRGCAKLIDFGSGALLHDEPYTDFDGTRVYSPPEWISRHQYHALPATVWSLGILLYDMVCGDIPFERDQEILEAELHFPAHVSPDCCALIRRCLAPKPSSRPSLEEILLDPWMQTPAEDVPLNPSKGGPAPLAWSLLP
Chain of CDK7/CycHMAT1 (P50613 whole entry): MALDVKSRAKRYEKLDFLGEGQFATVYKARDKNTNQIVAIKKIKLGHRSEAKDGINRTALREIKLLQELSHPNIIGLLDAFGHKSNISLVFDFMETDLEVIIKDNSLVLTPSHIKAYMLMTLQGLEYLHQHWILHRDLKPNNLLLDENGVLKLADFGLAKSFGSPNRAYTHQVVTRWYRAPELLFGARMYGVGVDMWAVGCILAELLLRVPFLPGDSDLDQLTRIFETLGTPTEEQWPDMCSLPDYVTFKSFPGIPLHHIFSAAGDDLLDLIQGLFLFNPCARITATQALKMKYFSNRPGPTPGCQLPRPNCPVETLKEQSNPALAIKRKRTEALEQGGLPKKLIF
Chain of CDK7/CycHMAT1 (P51946 whole entry partner): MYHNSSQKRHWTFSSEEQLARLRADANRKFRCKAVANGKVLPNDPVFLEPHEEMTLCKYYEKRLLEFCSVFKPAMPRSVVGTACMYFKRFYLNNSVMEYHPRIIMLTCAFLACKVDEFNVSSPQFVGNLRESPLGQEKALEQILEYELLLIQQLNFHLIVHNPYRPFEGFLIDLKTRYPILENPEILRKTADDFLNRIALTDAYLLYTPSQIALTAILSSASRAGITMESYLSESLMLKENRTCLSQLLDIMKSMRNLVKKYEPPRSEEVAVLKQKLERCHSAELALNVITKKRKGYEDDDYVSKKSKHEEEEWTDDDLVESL
Chain of CDK7/CycHMAT1 (P51948 whole entry partner): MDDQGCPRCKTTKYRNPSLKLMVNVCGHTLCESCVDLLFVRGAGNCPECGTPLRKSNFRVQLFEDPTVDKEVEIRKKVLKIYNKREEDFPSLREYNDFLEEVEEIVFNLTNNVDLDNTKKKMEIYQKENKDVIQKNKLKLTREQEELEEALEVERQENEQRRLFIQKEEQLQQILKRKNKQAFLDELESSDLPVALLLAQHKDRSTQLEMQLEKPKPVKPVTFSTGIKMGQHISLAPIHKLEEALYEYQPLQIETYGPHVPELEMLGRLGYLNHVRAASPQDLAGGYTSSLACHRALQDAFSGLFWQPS
Chain of CDK6 (Q00534 whole entry): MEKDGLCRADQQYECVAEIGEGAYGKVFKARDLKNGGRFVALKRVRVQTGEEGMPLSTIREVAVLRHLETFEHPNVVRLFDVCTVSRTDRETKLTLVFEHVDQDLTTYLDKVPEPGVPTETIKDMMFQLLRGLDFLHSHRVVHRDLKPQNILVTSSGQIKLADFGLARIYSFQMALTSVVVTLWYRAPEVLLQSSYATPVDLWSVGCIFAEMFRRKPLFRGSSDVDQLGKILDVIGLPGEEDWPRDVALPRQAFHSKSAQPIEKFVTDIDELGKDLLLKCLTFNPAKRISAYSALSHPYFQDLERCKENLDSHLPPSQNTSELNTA
Chain of PIK3CA/PIK3R1 (P42336 whole entry): as the sequence (P42336 whole entry) above
Chain of PIK3CA/PIK3R1 (P27986 whole entry partner): as the sequence (P27986 whole entry partner) above

Regarding `C[C@H]1CC[C@H]2C(C)(C)CCC[C@]2(C)c2c1oc1c(C=O)c3c(cc21)OCO3` [LG-4], the IC50 on PIK3α (PIK3CA/PIK3R1) was found to be 4.43 µM; on PIM2, 13.8 µM; at CDK7/CycHMAT1, 191 µM.

For the compound `C[C@H]1CC[C@H]2C(C)(C)CCCC2(C)[C@]12C=C1C=C(O)C(=O)C(C=O)=C1O2` (stereo partly drawn) [CD-3, 8-epi-corallidictyal B], the pIC50 at PIK3CA/PIK3R1 is 5.09.

As to `C[C@@H]1CC[C@H]2C(C)(C)CCC[C@]2(C)c2c1oc1c(C=O)c3c(cc21)OCO3` [LG-3], the IC50 worked out at 47.8 µM at CDK4/CycD3; 4.26 µM on PIK3α (PIK3CA/PIK3R1); 18 µM at PIM2; 16.3 µM on CDK7/CycHMAT1; 64.1 µM on CDK6.

Take `C[C@@H]1CC[C@H]2C(C)(C)CCC[C@]2(C)/C1=C/c1cc(O)c(O)c(C=O)c1O` [SD-1, siphonodictyal B]: the IC50 on CDK4/CycD3 stood at 32.9 µM; at PIK3α (PIK3CA/PIK3R1), 2.62 µM; at PIM2, 6.99 µM; on CDK7/CycHMAT1, 13.7 µM; on CDK6, 69.1 µM.

As to `C[C@H]1CC[C@H]2C(C)(C)CCC[C@]2(C)c2c1oc1c(C=O)c(O)c(O)cc21` [LG-2], the IC50 at CDK4/CycD3 amounted to 125 µM; on PIK3α (PIK3CA/PIK3R1), 1.72 µM; at PIM2, 2.81 µM; on CDK7/CycHMAT1 it was 9.08 µM. Further, on PIM2, the “inhibitory activity against PIM2” value is “potent inhibitory actions”.

As to `C[C@H]1CC[C@H]2C(C)(C)CCC[C@]2(C)/C1=C/c1cc(O)c(O)c(C=O)c1O` [SD-2, 8-epi-siphonodictyal B], the IC50 at CDK4/CycD3 turned out to be 22.4 µM; on PIK3α (PIK3CA/PIK3R1), 3.26 µM; on PIM2, 2.79 µM; at CDK7/CycHMAT1, 4.24 µM; on CDK6, 25.6 µM. The “inhibitory activity against PIM2” value on PIM2 is given as “potent inhibitory actions”.

The record behind these values is patent US11691980B2, “Liphagal analog and multi-targeted kinase inhibitor containing liphagal or analog thereof” (TOHOKU UNIVERSITY, priority 2017, dated 2023).
